Bridge positions count the residues as written; N and C are the ends. Square brackets hold non-standard residues; d marks the D form. Peptide text beside a SMILES is read from it. I, II: the chains in the order shown. * marks the point of attachment. Quinaldoyl(3-OH) = O=C(c1nc2ccccc2cc1O)*; NMeC = CN[C@@H](CS)C(=O)O; dDap = NC[C@@H](N)C(=O)O
What was measured:
MDA-MB-231 = test: SRB colorimetric cytotoxicity assay, MDA-MB-231; type: cell-based, human; conditions: MDA-MB-231, 48 hours exposure; for CC50: read-out: LC50 (the source's name)
Text: (§1) The aim of this assay is to evaluate the in vitro cytostatic (ability to delay or arrest tumor cell growth) or cytotoxic (ability to kill tumor cells) activity of the samples being tested.
(§2) A colorimetric type of assay, using sulforhodamine B (SRB) reaction has been adapted for a quantitative measurement of cell growth and viability (following the technique described by Skehan P et al. J. Natl. Cancer Inst. 1990, 82, 1107-1112).
(§3) This form of assay employs SBS-standard 96-well cell culture microplates (Faircloth et al. Methods in cell science, 1988, 11(4), 201-205; Mosmann et al. Journal of. Immunological. Methods, 1983, 65(1-2), 55-63). All the cell lines used in this study, derived from different types of human cancer, were obtained from the American Type Culture Collection (ATCC).
(§4) Cells were maintained in Dulbecco's Modified Eagle Medium (DMEM) supplemented with 10% Fetal Bovine Serum (FBS), 2 mM L-glutamine, 100 U/mL penicillin and 100 U/mL streptomycin at 37° C., 5% CO2 and 98% humidity. For the experiments, cells were harvested from subconfluent cultures using trypsinization and resuspended in fresh medium before counting and plating.
(§5) Cells were seeded in 96 well microtiter plates at 5×10^3 cells per well in aliquots of 150 μL, and allowed to attach to the plate surface for 18 hours in drug free medium. One control (untreated) plate of each cell line was fixed (as described below) and used for time zero reference value. Afterwards, test samples were added to the cultures in ten serial dilutions, in aliquots of 50 μL, ranging from 10 to 0.00262 μg/mL. After 48 hours exposure, the antitumor effect was estimated by the SRB method: Briefly, cells were washed twice with PBS, fixed for 15 min in 1% glutaraldehyde solution, rinsed twice in PBS, and stained in 0.4% SRB solution for 30 min at room temperature. Cells were then rinsed several times with 1% acetic acid solution and air-dried. SRB was then extracted in 10 mM trizma base solution and the absorbance measured in an automated spectrophotometric plate reader at 490 nm. Cell survival was expressed as percentage of control cell growth. The final effect of the sample being tested was estimated by applying the NCl algorithm (Boyd M R and Paull K D. Drug Dev. Res. 1995, 34, 91-104).
(§6) Using the mean±SD of triplicate cultures, a dose-response curve was automatically generated using nonlinear regression analysis. Three reference parameters were calculated (NCl algorithm) by automatic interpolation: GI50=concentration that produces 50% growth inhibition; TGI=total growth inhibition (cytostatic effect) and LC50=concentration that produces 50% net cell killing (cytotoxic effect).

A549 = test: SRB colorimetric cytotoxicity assay, A549; type: cell-based, human; conditions: A549, 48 hours exposure; for CC50: read-out: LC50 (the source's name)
Text: as §1, §2, §3, §4, §5, §6

HT29 = test: SRB colorimetric cytotoxicity assay, HT29; type: cell-based, human; conditions: HT29, 48 hours exposure; for CC50: read-out: LC50 (the source's name)
Text: as §1, §2, §3, §4, §5, §6

leukemia cell line L1210 = conditions: Boger and Lee 2000; cited from earlier work

Molecule | GI50 (MDA-MB-231) | TGI (MDA-MB-231) | CC50 (MDA-MB-231) | GI50 (A549) | TGI (A549) | CC50 (A549) | GI50 (HT29) | TGI (HT29) | CC50 (HT29) | cytotoxic activity compared with Triostin A (leukemia cell line L1210)
CSC[C@H]1C(=O)N(C)C[C@@H](NC(=O)c2nc3ccccc3cc2O)C(=O)NCC(=O)N(C)[C@H]2CSSC[C@@H](C(=O)N1C)N(C)C(=O)CNC(=O)[C@H](NC(=O)c1nc3ccccc3cc1O)CN(C)C(=O)[C@H](CSC)N(C)C2=O [Compound 2, {[3-HQA-D-Dap(Me&^1)-Gly-NMeCys(&^2)—NMe-Cys(Me)&^3][3-HQA-D-Dap(Me&^3)-Gly-NMeCys(&^2)—NMe-Cys(Me)&^1]] | 0.00408 µM | 4.26E−08 Molar | 0.373 µM | 0.00339 µM | 2.00E−08 Molar | 0.165 µM | 0.0208 µM | 1.13E−07 Molar | 0.747 µM | –
CSC[C@H]1C(=O)NC[C@@H](NC(=O)c2nc3ccccc3cc2O)C(=O)NCC(=O)N(C)[C@H]2CSSC[C@@H](C(=O)N1C)N(C)C(=O)CNC(=O)[C@H](NC(=O)c1nc3ccccc3cc1O)CNC(=O)[C@H](CSC)N(C)C2=O [Azathiocoraline] (I: {Quinaldoyl(3-OH)}-[dDap]G[NMeC][NMeC](Me) / II: {Quinaldoyl(3-OH)}-[dDap]G[NMeC][NMeC](Me); amide I:1-II:C, I:C-II:1; disulfide I:3-II:3) | 2.14 µM | >8.90E−06 Molar | > 8.9 µM | 3.74 µM | >8.90E−06 Molar | > 8.9 µM | 3.12 µM | >8.90E−06 Molar | > 8.9 µM | –
Azatriostin A | – | – | – | – | – | – | – | – | – | two orders of magnitude less active

Source: patent US8748388B2, “Antitumoral compounds” (Pharma Mar, S.A., priority 2008, dated 2014)
